{"source": "PubChem BioAssay AID2060502", "about": "(Molecular Pharmacology Branch, DTP, NCI, 2025);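 further: spheroids exposed to agents for seven days before readout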;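 on viability, T/C: percent of vehicle control viability where 100% = DMSO wells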", "test_system": "885724-159-R-J1-PDC complex spheroid viability", "assay": "Anticancer human tumor 885724-159-R-J1-PDC patient-derived pancreatic adenocarcinoma cell line growth inhibition [GQUAD]", "settings": "for IC50: curve of first compound; for viability, T/C: stronger effect = lower value", "summary_of_the_method": "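Multi-cell-type spheroids of tumor cells with HUVEC and mesenchymal stem cells, treated with drug combinations. Concentrations descend in half-log steps from near clinical Cmax, or from 10 microM where Cmax is unknown; viability read-out.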", "key": {"[1]": {"settings": "second compound 0.0316 µM, first compound 0.0316 µM"}, "[2]": {"settings": "second compound 0.0316 µM, first compound 0.316 µM"}, "[3]": {"settings": "second compound 0.1 µM, first compound 0.0316 µM"}, "[4]": {"settings": "second compound 0.1 µM, first compound 0.316 µM"}, "[5]": {"settings": "second compound 0.316 µM, first compound 0.0316 µM"}, "[6]": {"settings": "second compound 0.316 µM, first compound 0.316 µM"}, "[7]": {"settings": "second compound 1 µM, first compound 0.0316 µM"}, "[8]": {"settings": "second compound 1 µM, first compound 0.316 µM"}, "[9]": {"settings": "second compound 3.16 µM, first compound 0.0316 µM"}, "[10]": {"settings": "second compound 3.16 µM, first compound 0.316 µM"}, "[11]": {"settings": "second compound 10 µM, first compound 0.0316 µM"}, "[12]": {"settings": "second compound 10 µM, first compound 0.316 µM"}}}
{"smiles": "Cc1[nH]c2ccccc2c1CCNCc1ccc(/C=C/C(=O)NO)cc1", "note": "+ Cc1cnc(CNC(=O)c2c(=O)c3ccc(N4CCCN(C)CC4)nc3n3c2sc2ccccc23)cn1", "values": [{"measurement": "IC50", "setting": "second compound 0.0316 µM", "result": 291, "unit": "nM"}, {"measurement": "IC50", "setting": "second compound 0.1 µM", "result": 241, "unit": "nM"}, {"measurement": "IC50", "setting": "second compound 0.316 µM", "result": 193, "unit": "nM"}, {"measurement": "IC50", "setting": "second compound 1 µM", "result": 137, "unit": "nM"}, {"measurement": "IC50", "setting": "second compound 3.16 µM", "result": 93.5, "unit": "nM"}, {"measurement": "IC50", "setting": "second compound 10 µM", "result": 23.8, "unit": "nM"}, {"measurement": "viability, T/C", "setting": "second compound 0.0316 µM, first compound 0.000999 µM", "result": 111, "unit": "%"}, {"measurement": "viability, T/C", "setting": "second compound 0.0316 µM, first compound 0.00316 µM", "result": 103, "unit": "%"}, {"measurement": "viability, T/C", "setting": "second compound 0.0316 µM, first compound 0.00999 µM", "result": 89.7, "unit": "%"}, {"measurement": "viability, T/C", "setting": "[1]", "result": 95.4, "unit": "%"}, {"measurement": "viability, T/C", "setting": "second compound 0.0316 µM, first compound 0.0999 µM", "result": 97.5, "unit": "%"}, {"measurement": "viability, T/C", "setting": "[2]", "result": 46.4, "unit": "%"}, {"measurement": "viability, T/C", "setting": "second compound 0.1 µM, first compound 0.000999 µM", "result": 100, "unit": "%"}, {"measurement": "viability, T/C", "setting": "second compound 0.1 µM, first compound 0.00316 µM", "result": 114, "unit": "%"}, {"measurement": "viability, T/C", "setting": "second compound 0.1 µM, first compound 0.00999 µM", "result": 117, "unit": "%"}, {"measurement": "viability, T/C", "setting": "[3]", "result": 98.8, "unit": "%"}, {"measurement": "viability, T/C", "setting": "second compound 0.1 µM, first compound 0.0999 µM", "result": 67.2, "unit": "%"}, {"measurement": "viability, T/C", "setting": "[4]", "result": 44.7, "unit": "%"}, {"measurement": "viability, T/C", "setting": "second compound 0.316 µM, first compound 0.000999 µM", "result": 107, "unit": "%"}, {"measurement": "viability, T/C", "setting": "second compound 0.316 µM, first compound 0.00316 µM", "result": 103, "unit": "%"}, {"measurement": "viability, T/C", "setting": "second compound 0.316 µM, first compound 0.00999 µM", "result": 102, "unit": "%"}, {"measurement": "viability, T/C", "setting": "[5]", "result": 83.1, "unit": "%"}, {"measurement": "viability, T/C", "setting": "second compound 0.316 µM, first compound 0.0999 µM", "result": 72.8, "unit": "%"}, {"measurement": "viability, T/C", "setting": "[6]", "result": 34.5, "unit": "%"}, {"measurement": "viability, T/C", "setting": "second compound 1 µM, first compound 0.000999 µM", "result": 90, "unit": "%"}, {"measurement": "viability, T/C", "setting": "second compound 1 µM, first compound 0.00316 µM", "result": 78.6, "unit": "%"}, {"measurement": "viability, T/C", "setting": "second compound 1 µM, first compound 0.00999 µM", "result": 75.8, "unit": "%"}, {"measurement": "viability, T/C", "setting": "[7]", "result": 71.5, "unit": "%"}, {"measurement": "viability, T/C", "setting": "second compound 1 µM, first compound 0.0999 µM", "result": 53.5, "unit": "%"}, {"measurement": "viability, T/C", "setting": "[8]", "result": 37, "unit": "%"}, {"measurement": "viability, T/C", "setting": "second compound 3.16 µM, first compound 0.000999 µM", "result": 79.3, "unit": "%"}, {"measurement": "viability, T/C", "setting": "second compound 3.16 µM, first compound 0.00316 µM", "result": 72.5, "unit": "%"}, {"measurement": "viability, T/C", "setting": "second compound 3.16 µM, first compound 0.00999 µM", "result": 68, "unit": "%"}, {"measurement": "viability, T/C", "setting": "[9]", "result": 63.6, "unit": "%"}, {"measurement": "viability, T/C", "setting": "second compound 3.16 µM, first compound 0.0999 µM", "result": 49.3, "unit": "%"}, {"measurement": "viability, T/C", "setting": "[10]", "result": 30.6, "unit": "%"}, {"measurement": "viability, T/C", "setting": "second compound 10 µM, first compound 0.000999 µM", "result": 69.1, "unit": "%"}, {"measurement": "viability, T/C", "setting": "second compound 10 µM, first compound 0.00316 µM", "result": 73.7, "unit": "%"}, {"measurement": "viability, T/C", "setting": "second compound 10 µM, first compound 0.00999 µM", "result": 56.9, "unit": "%"}, {"measurement": "viability, T/C", "setting": "[11]", "result": 46.1, "unit": "%"}, {"measurement": "viability, T/C", "setting": "second compound 10 µM, first compound 0.0999 µM", "result": 35.4, "unit": "%"}, {"measurement": "viability, T/C", "setting": "[12]", "result": 23.8, "unit": "%"}]}
{"smiles": "O=C(NO)c1cnc(N2CCN(S(=O)(=O)c3ccc4ccccc4c3)CC2)nc1", "note": "+ CN(C)c1ccc(Nc2c3ccc(NC(=O)CCN4CCCC4)cc3nc3cc(NC(=O)CCN4CCCC4)ccc23)cc1", "values": [{"measurement": "IC50", "setting": "second compound 0.0316 µM", "result": 683, "unit": "nM"}, {"measurement": "IC50", "setting": "second compound 0.1 µM", "result": 702, "unit": "nM"}, {"measurement": "IC50", "setting": "second compound 0.316 µM", "result": 579, "unit": "nM"}, {"measurement": "IC50", "setting": "second compound 1 µM", "result": 500, "unit": "nM"}, {"measurement": "IC50", "setting": "second compound 3.16 µM", "result": 519, "unit": "nM"}, {"measurement": "IC50", "setting": "second compound 10 µM", "result": 218, "unit": "nM"}, {"measurement": "viability, T/C", "setting": "[1]", "result": 91.8, "unit": "%"}, {"measurement": "viability, T/C", "setting": "second compound 0.0316 µM, first compound 0.1 µM", "result": 117, "unit": "%"}, {"measurement": "viability, T/C", "setting": "[2]", "result": 78.7, "unit": "%"}, {"measurement": "viability, T/C", "setting": "second compound 0.0316 µM, first compound 1 µM", "result": 35.9, "unit": "%"}, {"measurement": "viability, T/C", "setting": "second compound 0.0316 µM, first compound 3.16 µM", "result": 0.8, "unit": "%"}, {"measurement": "viability, T/C", "setting": "second compound 0.0316 µM, first compound 10 µM", "result": 0.93, "unit": "%"}, {"measurement": "viability, T/C", "setting": "[3]", "result": 106, "unit": "%"}, {"measurement": "viability, T/C", "setting": "second compound 0.1 µM, first compound 0.1 µM", "result": 100, "unit": "%"}, {"measurement": "viability, T/C", "setting": "[4]", "result": 86.5, "unit": "%"}, {"measurement": "viability, T/C", "setting": "second compound 0.1 µM, first compound 1 µM", "result": 34.5, "unit": "%"}, {"measurement": "viability, T/C", "setting": "second compound 0.1 µM, first compound 3.16 µM", "result": 0.82, "unit": "%"}, {"measurement": "viability, T/C", "setting": "second compound 0.1 µM, first compound 10 µM", "result": 0.44, "unit": "%"}, {"measurement": "viability, T/C", "setting": "[5]", "result": 83.7, "unit": "%"}, {"measurement": "viability, T/C", "setting": "second compound 0.316 µM, first compound 0.1 µM", "result": 91.2, "unit": "%"}, {"measurement": "viability, T/C", "setting": "[6]", "result": 75.6, "unit": "%"}, {"measurement": "viability, T/C", "setting": "second compound 0.316 µM, first compound 1 µM", "result": 26.5, "unit": "%"}, {"measurement": "viability, T/C", "setting": "second compound 0.316 µM, first compound 3.16 µM", "result": 1.07, "unit": "%"}, {"measurement": "viability, T/C", "setting": "second compound 0.316 µM, first compound 10 µM", "result": 1.4, "unit": "%"}, {"measurement": "viability, T/C", "setting": "[7]", "result": 80.4, "unit": "%"}, {"measurement": "viability, T/C", "setting": "second compound 1 µM, first compound 0.1 µM", "result": 68.9, "unit": "%"}, {"measurement": "viability, T/C", "setting": "[8]", "result": 64.2, "unit": "%"}, {"measurement": "viability, T/C", "setting": "second compound 1 µM, first compound 1 µM", "result": 29.9, "unit": "%"}, {"measurement": "viability, T/C", "setting": "second compound 1 µM, first compound 3.16 µM", "result": 1.26, "unit": "%"}, {"measurement": "viability, T/C", "setting": "second compound 1 µM, first compound 10 µM", "result": 0.73, "unit": "%"}, {"measurement": "viability, T/C", "setting": "[9]", "result": 71.7, "unit": "%"}, {"measurement": "viability, T/C", "setting": "second compound 3.16 µM, first compound 0.1 µM", "result": 64.6, "unit": "%"}, {"measurement": "viability, T/C", "setting": "[10]", "result": 76.8, "unit": "%"}, {"measurement": "viability, T/C", "setting": "second compound 3.16 µM, first compound 1 µM", "result": 22, "unit": "%"}, {"measurement": "viability, T/C", "setting": "second compound 3.16 µM, first compound 3.16 µM", "result": 1.42, "unit": "%"}, {"measurement": "viability, T/C", "setting": "second compound 3.16 µM, first compound 10 µM", "result": 0.69, "unit": "%"}, {"measurement": "viability, T/C", "setting": "[11]", "result": 61, "unit": "%"}, {"measurement": "viability, T/C", "setting": "second compound 10 µM, first compound 0.1 µM", "result": 59, "unit": "%"}, {"measurement": "viability, T/C", "setting": "[12]", "result": 43.7, "unit": "%"}, {"measurement": "viability, T/C", "setting": "second compound 10 µM, first compound 1 µM", "result": 26.7, "unit": "%"}, {"measurement": "viability, T/C", "setting": "second compound 10 µM, first compound 3.16 µM", "result": 1.36, "unit": "%"}, {"measurement": "viability, T/C", "setting": "second compound 10 µM, first compound 10 µM", "result": 2.05, "unit": "%"}]}
